According to the NIST ThermoML archive (doi:10.1021/acs.jced.7b01006):

How the values were obtained:
[1] = for electrical conductivity / viscosity / mass density: 100 kPa, Liquid; for electrical conductivity: Alternating current cell with electrodes; for viscosity: Falling or rolling sphere viscometry; for mass density: Vibrating tube method; for surface tension liquid-gas: Wilhelmy plate
[2] = xn = mol fraction of the nth substance listed; conditions: 100 kPa, Liquid, x2 = 0; for viscosity: Falling or rolling sphere viscometry; for mass density: Vibrating tube method

CCC[n+]1ccn(C)c1C.N#C[S-] [1,2-dimethyl-3-propylimidazolium thiocyanate]
[1]
Conditions	electrical conductivity [S/m]	mass density [kg/m3]	surface tension liquid-gas [mN/m]	viscosity [mPa·s]
288.15 K	0.255	1099.81	–	316.5
293.15 K	0.361	1096.75	–	215.8
298.15 K	0.459	1093.67	48.8	151.9
303.15 K	0.583	1090.61	–	110.1
308.15 K	0.733	1087.57	–	83.42
313.15 K	0.905	1084.55	–	64.78
318.15 K	1.1	1081.54	–	50.96
323.15 K	1.33	1078.54	–	41.55

CCCCn1cc[n+](C)c1C.N#C[S-] [1-butyl-2,3-dimethylimidazolium thiocyanate]
[1]
Conditions	electrical conductivity [S/m]	mass density [kg/m3]	surface tension liquid-gas [mN/m]	viscosity [mPa·s]
288.15 K	0.106	1084.2	–	452.7
293.15 K	0.153	1081.11	–	311.3
298.15 K	0.217	1078.2	44.8	218
303.15 K	0.293	1075.18	–	157.9
308.15 K	0.386	1072.16	–	118.9
313.15 K	0.496	1069.15	–	90.46
318.15 K	0.627	1066.16	–	72.04
323.15 K	0.774	1063.2	–	57.11

CC#N [acetonitrile]
[1]
Conditions	mass density [kg/m3]	viscosity [mPa·s]
288.15 K	787.58	0.376
293.15 K	781.89	0.357
298.15 K	776.52	0.339
303.15 K	771.12	0.324
308.15 K	765.83	0.309
313.15 K	760.36	0.295
318.15 K	755.14	0.283
323.15 K	749.44	0.272

CC#N [acetonitrile] + CCCCn1cc[n+](C)c1C.N#C[S-]
[2]
Conditions	mass density [kg/m3]	viscosity [mPa·s]
288.15 K	787.58	0.376
293.15 K	781.89	0.357
298.15 K	776.52	0.339
303.15 K	771.12	0.324
308.15 K	765.83	0.309
313.15 K	760.36	0.295
318.15 K	755.14	0.283
323.15 K	749.44	0.272

CC#N [acetonitrile] + CCC[n+]1ccn(C)c1C.N#C[S-]
[2]
Conditions	mass density [kg/m3]	viscosity [mPa·s]
288.15 K	787.58	0.376
293.15 K	781.89	0.357
298.15 K	776.52	0.339
303.15 K	771.12	0.324
308.15 K	765.83	0.309
313.15 K	760.36	0.295
318.15 K	755.14	0.283
323.15 K	749.44	0.272
